Assay results: patent US7133717B2, “Tissue electroperforation for enhanced drug delivery and diagnostic sampling” (Johnson & Johnson Consumer Companies, Inc., priority 1999, dated 2006)

Tests used:
Format in all cases: in vivo
Settings in all cases: two pigs
[1] = Electroperforation (25 pores/cm^2) followed by passive diffusion of erythropoietin for transdermal delivery, plasma erythropoietin by ELISA
Protocol: (§1) To evaluate the pore transport pathway created through the stratum corneum of the skin by electroperforation, an in vivo experiment was conducted on the back skin of Yorkshire pigs (female, ˜12 kg) using an electrosurgery apparatus (Surgitron™, Ellman International, Inc., Hewlett, N.Y.). The pigs were immobilized with appropriate anesthetics and analgesics. Electrofulguration current was used with a fine wire electrode (0.26 mm in diameter) and power output setting at between scale 3 to 10. A small pore was created on the surface of the skin by carefully moving the electrode towards the skin until the tip of the electrode almost touched the skin. The electrode was quickly moved away from the skin as soon as an electric arc appeared in the gap between the electrode tip and the skin surface.
An electroperforation procedure was conducted in two pigs similar to that in Example 3, followed by passive diffusion of erythropoietin (20 kU/ml, Procrit®, Ortho Biotech, Inc., Raritan, N.J.) at the treatment site. There were 25 pores/cm^2 generated with electroperforation on each pig. The drug chamber based over the electroperforation-treated skin area contained 0.5 ml of erythropoietin solution. Blood samples were collected for erythropoietin analysis with an ELISA method. The erythropoietin delivery procedure was carried out for 7 hours. […]

pigs [2] = experiment: Electroperforation (9 pores/cm^2) followed by passive diffusion and iontophoresis of insulin for transdermal delivery, blood glucose monitoring
Protocol: as §1
An electroperforation procedure was conducted in two pigs similar with a pore density of 9 pores/cm^2 on the skin and subsequently was followed by transdermal insulin delivery. The purpose of using a lower pore density in this experiment was to examine the effect of pore number (e.g., the extent of the transport pathway available) to transdermal insulin delivery. The same insulin-containing chamber and drug application procedures were used in this experiment as those in the Example 2. […]

pigs [3] = experiment: Electroperforation (39 pores/cm^2) followed by passive diffusion of insulin for transdermal delivery, blood glucose monitoring
Protocol: as §1
The electroperforation procedure described in Example 1 was conducted in two pigs with a pore density of 39 pores/cm^2 of the skin and subsequently followed by transdermal insulin delivery with passive diffusion. An insulin-containing chamber was immediately placed onto the electroperforation-treated skin. […] Blood glucose of the pigs was monitored by obtaining blood samples of the ear vein, which were analyzed using two blood glucose analyzers separately to assure the accuracy (One Touch® Basic, LifeScan, Inc., Milpitas, Calif.).

erythropoietin
plasma erythropoietin concentrations ([1]; one day after the delivery experiment): still above the endogenous basal level | plasma erythropoietin concentration ([1]; passive diffusion, 0.5 ml of 20 kU/ml solution, during the 7 hour delivery until chambers removed): progressive increase

insulin
blood glucose reduction (pigs [2]; during iontophoresis, 4 mA DC, two 30-minute sections at 1.5 hour and 3 hour): rapid blood glucose reduction | blood glucose levels (pigs [2]; first 1.5 hours, passive diffusion only): did not decline | blood glucose reduction (pigs [3]; 0.5 ml insulin solution 100 U/ml, contact area 2.3 cm^2): greater than 50 % of the basal level | blood glucose levels (pigs [3]; from the onset of insulin delivery): declined rather quickly
